Experimental data published in paper PMC8402547, “In Vitro and In Vivo Analysis of Ochratoxin A-Derived Glucuronides and Mercapturic Acids as Biomarkers of Exposure” (Toxins, 2021).
Like-named read-outs stand apart in the source and are kept apart here.

Key:
[1] = 90-day rat study: 24 h urinary excretion of OTA and OTA-glucuronides, LC–MS/MS with and without β-glucuronidase hydrolysis; type: in vivo, male F344/N rats; settings: for Urinary excretion, fraction of the administered dose / Urinary excretion: 5 days/week; for Urinary excretion, fraction of the administered dose: 24 h urine
Description: (§1) 90-day study: Male F344/N rats (6–7 weeks old) were purchased from Harlan-Winkelmann, Borchen, Germany. Animals were housed in groups of 5 in Macrolon type-4 cages and allowed free access to pelleted standard rat maintenance diet (SSNIFF, Soest, Germany) and tap water. After a week of acclimatization, rats (n = 5/dose) were exposed to OTA dissolved in corn oil by oral gavage at doses of 0, 21, 70 or 210 µg/kg bw for 2, 4 or 13 weeks (5 days per week). For urine collection, animals were transferred into metabolic cages (Tecniplast Metabolic Cage—Rats Over 300 g; Tecniplast, Italy) 48 h prior to necropsy and fasted for 20 h but allowed free access to tap water. Urine was collected for 24 h on ice, aliquoted and stored at −20 °C until further analysis.
(§2) Duplicate analysis of OTA in urine samples with and without enzymatic hydrolysis allowed for indirect measurement of glucuronides, whereby an increase in the concentration of OTA in the samples incubated with enzyme compared to those without enzymatic treatment reflected the hydrolyzed glucuronides. Aliquots of rat urine (125 µL) were mixed with 0.1 M sodium acetate (104 µL; pH = 5). For analysis of the concentration of OTA without enzymatic hydrolysis, an aliquot (30 µL) of this solution was removed and mixed with 7 µL acetonitrile. The remaining solution (199 µL) was incubated with β-glucuronidase (1.65 µL; <100,000 units/mL) at 37 °C for 1 h. Hydrolysis was terminated by addition of ice-cold acetonitrile (50 µL) and centrifugation (15 min., 4 °C, 20,000× g). To 98 µL supernatant, 2 µL isotopically labeled ^13C20-OTA in acetonitrile (14-day study: 5 µg/mL; 90-day study: 1 µg/mL) was added as an internal standard. For analysis, 10 µL of each sample were injected into the LC–MS system and analyzed using the method described below. A calibration curve was prepared from solutions of OTA and the isotopically labeled ^13C20-OTA internal standard in acetonitrile and subsequent dilution with urine of a control animal.
(§3) LC–MS/MS analyses were performed on an Agilent 1100 series LC coupled to an API 2000/Q-Trap mass spectrometer (Applied Biosystems/MDS Sciex, Concord, Canada). Samples were injected into the LC–MS/MS system through an Agilent 1100 series autosampler. Separations were carried out on a ReproSil-Pur C18 AQ column (2 mm × 150 mm, 5 µm; Dr. Maisch; Ammerbuch, Germany). Gradient elution of OTA-derived metabolites was carried out with water + 0.1% formic acid (solvent A) and acetonitrile (solvent B). Initially, solvent A was held isocratic for 5 min at 100%, followed by a linear gradient to 95% B in 5 min. These conditions were held for further 5 min. Within 1 min, the gradient decreased linearly to 0% B and remained at initial conditions until the end of analysis (30 min). A flow rate of 0.2 mL/min was used. For each run, 10 µL of the respective sample were injected by the autosampler.
(§4) The API 2000/Q-Trap mass spectrometer was operated with a Turbo Ion Spray source in negative ion mode with a voltage of −4000 V. Spectral data were recorded with N2 as the heater gas at 450 °C and as the collision gas (CAD = −2) in multiple reaction monitoring mode (MRM).

[2] = human urine samples; cited from earlier work
[3] = Direct LC–MS/MS analysis of OTA metabolites in urine of OTA-treated rats; type: in vivo, male F344/N rats; settings: OTA up to 2 mg/kg bw, negative ionization mode
Description: Archived urine samples from previous repeated dose oral toxicity studies on OTA in male F344/N rats were used. The studies were performed according to national animal welfare regulations after authorization by the local authorities (Regierung von Unterfranken, AZ 621-2531.01-9/98 and AZ 54-2531.01-59/05).
(§5) 14-day study: Male F344 rats (170–190 g) were purchased from Charles-River Laboratories, Sulzfeld, Germany. Animals had free access to water and standard diet (Altromin) and were kept under standard conditions (12 h day/night cycle, temperature 21–23 °C, humidity 45–55%). Rats were transferred to metabolic cages (Tecniplast Metabolic Cage—Rats Over 300 g; Tecniplast, Italy) for collection of urine 3 days prior to dosing. Animals were administered OTA dissolved in corn oil by oral gavage at 0, 0.25, 0.5, 1.0 and 2.0 mg/kg bw for 2 weeks (5 days per week). Urine was collected every 12 h on day 1 of treatment and every 24 h thereafter on ice, aliquoted and stored at −20 °C until further analysis.
as §1
Urine samples were diluted with acetonitrile (2:1), vortexed and cleared via centrifugation (4 °C, 15 min., 2000× g) to precipitate proteins. Of the resulting supernatant, 10 µL were injected into the LC–MS system and analyzed using the method described below.
as §3, §4
In addition to MRM, constant neutral loss of 129 amu in the negative ion mode based on the characteristic fragmentation pattern of mercapturic acids was used to screen for N-acetyl-cysteine conjugates of OTA. Furthermore, constant neutral loss of 176 amu in positive ion mode based on the fragmentation pattern of glucuronic acid conjugates was used to screen for OTA glucuronides.

[4] = 0.5 mg/kg bw oral, within 96 h, cited from earlier work
[5] = 14-day rat study: 24 h urinary excretion of OTA and OTA-glucuronides, LC–MS/MS with and without β-glucuronidase hydrolysis; type: in vivo, male F344/N rats; settings: for Urinary excretion / Urinary excretion, fraction of the administered dose: 2 mg OTA/kg bw oral, 5 d/week; for Urinary excretion, fraction of the administered dose: 24 h urine
Description: as §5, §2, §3, §4

[6] = 4 weeks treatment, OTA 210 μg/kg bw per day oral, n = 1

## C[C@@H]1Cc2c(Cl)cc(C(=O)N[C@@H](Cc3ccccc3)C(=O)O)c(O)c2C(=O)O1 [OTA, Ochratoxin A]
[1]; 2 weeks treatment, OTA 21 μg/kg bw per day oral
  Urinary excretion, fraction of the administered dose: 1.9%
[1]; 2 weeks treatment, OTA 21 μg/kg bw per day oral, mean ± SD
  Urinary excretion: 0.22 ± 0.03 nmol/24 h
[1]; 2 weeks treatment, OTA 70 μg/kg bw per day oral
  Urinary excretion, fraction of the administered dose: 0.8%
[1]; 2 weeks treatment, OTA 70 μg/kg bw per day oral, mean ± SD
  Urinary excretion: 0.32 ± 0.12 nmol/24 h
[1]; 2 weeks treatment, OTA 210 μg/kg bw per day oral
  Urinary excretion, fraction of the administered dose: 1.2%
[1]; 2 weeks treatment, OTA 210 μg/kg bw per day oral, mean ± SD
  Urinary excretion: 1.35 ± 0.36 nmol/24 h
[1]; 4 weeks treatment, OTA 70 μg/kg bw per day oral
  Urinary excretion, fraction of the administered dose: 0.9%
[1]; 4 weeks treatment, OTA 70 μg/kg bw per day oral, mean ± SD
  Urinary excretion: 0.51 ± 0.09 nmol/24 h
[1]; [6]
  Urinary excretion, fraction of the administered dose: 4.6%
  Urinary excretion: 5.86 nmol/24 h
[1]; 13 weeks treatment, OTA 21 μg/kg bw per day oral
  Urinary excretion, fraction of the administered dose: 1.1%
[1]; 13 weeks treatment, OTA 21 μg/kg bw per day oral, mean ± SD
  Urinary excretion: 0.18 ± 0.07 nmol/24 h
[1]; 13 weeks treatment, OTA 70 μg/kg bw per day oral
  Urinary excretion, fraction of the administered dose: 1.9%
[1]; 13 weeks treatment, OTA 70 μg/kg bw per day oral, mean ± SD
  Urinary excretion: 0.97 ± 0.36 nmol/24 h
[1]; 13 weeks treatment, OTA 210 μg/kg bw per day oral
  Urinary excretion, fraction of the administered dose: 2.5%
[1]; 13 weeks treatment, OTA 210 μg/kg bw per day oral, mean ± SD
  Urinary excretion: 3.88 ± 1.50 nmol/24 h
[1]; range over 90-day study, OTA 21, 70 and 210 µg/kg (5 days/week)
  Fraction of the administered dose excreted in urine: 0.8 to 4.6%
[2]
  Concentration in human urine following enzymatic hydrolysis as compared to without hydrolysis: up to 6 fold
[3]
  Detection in urine of OTA-treated rats by direct LC–MS/MS (MRM): consistently found
[4]; female rats
  Fraction of orally administered dose excreted in urine: 5.2%
[4]; male rats
  Fraction of orally administered dose excreted in urine: 2.1%
[5]; animal 2, day 3 of treatment
  Urinary excretion: 15.3 nmol/24 h
  Urinary excretion, fraction of the administered dose: 1.8%
[5]; animal 2, day 5 of treatment
  Urinary excretion: 40.3 nmol/24 h
  Urinary excretion, fraction of the administered dose: 4.7%
[5]; animal 2, day 7 of treatment
  Urinary excretion: 35.4 nmol/24 h
  Urinary excretion, fraction of the administered dose: 4.1%
[5]; animal 2, day 9 of treatment
  Urinary excretion: 32.9 nmol/24 h
  Urinary excretion, fraction of the administered dose: 3.7%
[5]; animal 2, day 11 of treatment
  Urinary excretion: 40.9 nmol/24 h
  Urinary excretion, fraction of the administered dose: 4.6%
[5]; animal 2, day 13 of treatment
  Urinary excretion: 21.0 nmol/24 h
  Urinary excretion, fraction of the administered dose: 2.2%
[5]; animal 3, day 3 of treatment
  Urinary excretion: 4.4 nmol/24 h
  Urinary excretion, fraction of the administered dose: 0.5%
[5]; animal 3, day 5 of treatment
  Urinary excretion: 30.9 nmol/24 h
  Urinary excretion, fraction of the administered dose: 3.5%
[5]; animal 3, day 7 of treatment
  Urinary excretion: 62.4 nmol/24 h
  Urinary excretion, fraction of the administered dose: 6.9%
[5]; animal 3, day 9 of treatment
  Urinary excretion: 17.8 nmol/24 h
  Urinary excretion, fraction of the administered dose: 2.0%
[5]; animal 3, day 11 of treatment
  Urinary excretion: 33.6 nmol/24 h
  Urinary excretion, fraction of the administered dose: 3.7%
[5]; animal 3, day 13 of treatment
  Urinary excretion: 48.1 nmol/24 h
  Urinary excretion, fraction of the administered dose: 5.3%
[5]; range over the course of the study, OTA 2 mg/kg bw for 2 weeks (5 days/week)
  24 h urinary excretion, % of the daily administered dose: 0.5–6.9%
